# In PMC7647782, “Cytotoxic, Antioxidant, and Metabolic Enzyme Inhibitory Activities of Euphorbia cyparissias Extracts” (Oxidative Medicine and Cellular Longevity, 2020):
# Target: DrPLA2-IB (Camelus dromedarius, UniProt A0A5N4C9D4)
# Assay: Phospholipase activity inhibition, dromedary PLA2-IB
# Format: biochemical
# Experimental: Dromedary (DrPlA2-IB), porcine (PPPlA2-IB), and stingray group IB phospholipases (SPLA2-IB) were purified and prepared as described in our previous works and De Haas et al., respectively. Dromedary (DrPL), stingray (SPL), and porcine (PPL) lipases were also purified according to protocols optimized in previous works. The enzymes β-glucosidase, α-amylase, and XO were purchased from Sigma-Aldrich (St. Louis, MO, USA).
# The phospholipase activities were measured based on the De Araújo and Radvanyi method. The inhibitory effect of various extracts was determined using samples of dromedary, stingray, and porcine digestive group IB phospholipases (PLA2-IB). A 10 μL sample of ethanolic or aqueous extract was mixed with 10 μL of PLA2-GIB and preincubated for 20 min at room temperature. The mixture was added to 1 mL of the substrate, which was composed of lecithin (3.5 mM) solubilized in 100 mM NaCl, 3 mM sodium taurodeoxycholate, 10 mM CaCl2, and 0.055 mM red phenol at a pH of 7.6. The activity was verified by measuring spectrophotometrically the absorbance at 558 nm for 5 min. The inhibition percentage was calculated by measuring residual activity compared to negative control assay (absence of extract). The IC50 values were determined from the curve.
# The activities of these enzymes were measured using the pH-stat technique on olive oil emulsion at optimal conditions for enzyme activity. […]
# DrPLA2-IB, sequence (A0A5N4C9D4 23-145): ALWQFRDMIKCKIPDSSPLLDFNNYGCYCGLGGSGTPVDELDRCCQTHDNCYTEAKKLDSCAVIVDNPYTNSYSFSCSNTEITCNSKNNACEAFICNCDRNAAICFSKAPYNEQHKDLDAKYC
compound,measurement,value
"CC1(C)CC[C@]2(C(=O)O)CC[C@]3(C)C(=CC[C@@H]4[C@@]5(C)CC[C@H](O)C(C)(C)[C@@H]5CC[C@]43C)[C@@H]2C1 [Oleanolic acid, oleanolic acid]",IC50,174 µM
